# Assay results published in the supplement of paper PMC6045584.
# ± gives the standard deviation of the averaged measurements.
# Key:
# CANERTINIB [1] = compound: T1, C=CC(=O)Nc1cc2c(Nc3ccc(F)c(Cl)c3)ncnc2cc1OCCCN1CCOCC1 [CANERTINIB]; experiment: area under dose-response curve of surviving fraction (unscaled, Aref=0) (surviving fraction x log10(nM)); higher = more resistant; settings: exposure time: 5 days; dose range 0.5-1000 nM
# Outline: (§1)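 Three screens per tumour cell line were run in 384-well plates at eight inhibitor concentrations from 0.5 to 1000 nM over five days. Surviving fractions, from CellTiter-Glo luminescence normalised to DMSO-only wells, were fitted with 3-parameter logistic curves in the drc R package. The reported area under the curve is the unscaled activity area. It spans log10 dose, and Aref is 0.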
# [2] = compound: Cn1cc(C2=Nc3cc(NC(=O)C(N)C4CCCCC4)cc4c3C2=CNNC4=O)cn1; experiment: as above; settings: exposure time: 5 days; dose range 0.5-1000 nM
# Outline: as §1
# BI-2536 [3] = compound: T2, CC[C@@H]1C(=O)N(C)c2cnc(Nc3ccc(C(=O)NC4CCN(C)CC4)cc3OC)nc2N1C1CCCC1 [BI-2536]; experiment: as above; settings: exposure time: 5 days; dose range 0.5-1000 nM
# Outline: as §1
# SNX-5422 [4] = compound: T3, CC1(C)CC(=O)c2c(C(F)(F)F)nn(-c3ccc(C(N)=O)c(N[C@H]4CC[C@H](OC(=O)CN)CC4)c3)c2C1 [SNX-5422]; experiment: as above; settings: exposure time: 5 days; dose range 0.5-1000 nM
# Outline: as §1
# AFATINIB [5] = compound: T4, CN(C)C/C=C/C(=O)Nc1cc2c(Nc3ccc(F)c(Cl)c3)ncnc2cc1O[C@H]1CCOC1 [AFATINIB]; experiment: as above; settings: exposure time: 5 days; dose range 0.5-1000 nM
# Outline: as §1
# SAPACITABINE [6] = compound: T5, CCCCCCCCCCCCCCCC(=O)Nc1ccn([C@@H]2O[C@H](CO)[C@@H](O)[C@@H]2C#N)c(=O)n1 [SAPACITABINE]; experiment: as above; settings: exposure time: 5 days; dose range 0.5-1000 nM
# Outline: as §1
# MDV3100 [7] = compound: T6, CNC(=O)c1ccc(N2C(=S)N(c3ccc(C#N)c(C(F)(F)F)c3)C(=O)C2(C)C)cc1F [MDV3100]; experiment: as above; settings: exposure time: 5 days; dose range 0.5-1000 nM
# Outline: as §1
# TIOGUANINE [8] = compound: T7, Nc1nc2[nH]cnc2c(=S)[nH]1 [TIOGUANINE]; experiment: as above; settings: exposure time: 5 days; dose range 0.5-1000 nM
# Outline: as §1
# CANERTINIB [9] = compound: T1, CANERTINIB; experiment: surviving fraction relative to DMSO-only wells; higher = less growth inhibition; settings: exposure time: 5 days
# Outline: (§2)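 A line counted only if its three screens reached replicate Pearson r >0.7 and median Z' >0.3. Tumour cells in log phase were seeded at 250–500 per well in 384-well plates and, after 24 hours, kept in continuous contact with inhibitors at 0.5, 1, 5, 10, 50, 100, 500 and 1000 nM for five days. Surviving fraction was taken from CellTiter-Glo luminescence relative to the median of DMSO-only wells.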
# [10] = compound: Cn1cc(C2=Nc3cc(NC(=O)C(N)C4CCCCC4)cc4c3C2=CNNC4=O)cn1; experiment: as above; settings: exposure time: 5 days
# Outline: as §2
# BI-2536 [11] = compound: T2, BI-2536; experiment: as above; settings: exposure time: 5 days
# Outline: as §2
# SNX-5422 [12] = compound: T3, SNX-5422; experiment: as above; settings: exposure time: 5 days
# Outline: as §2
# AFATINIB [13] = compound: T4, AFATINIB; experiment: as above; settings: exposure time: 5 days
# Outline: as §2
# SAPACITABINE [14] = compound: T5, SAPACITABINE; experiment: as above; settings: exposure time: 5 days
# Outline: as §2
# MDV3100 [15] = compound: T6, MDV3100; experiment: as above; settings: exposure time: 5 days
# Outline: as §2
# TIOGUANINE [16] = compound: T7, TIOGUANINE; experiment: as above; settings: exposure time: 5 days
# Outline: as §2
test system,measurement,setting,value
HUO3N1 BONE,area under dose-response curve,CANERTINIB [1],3.18
same,area under dose-response curve,[2],2.88
same,area under dose-response curve,BI-2536 [3],1.56
same,area under dose-response curve,SNX-5422 [4],2.53
same,area under dose-response curve,AFATINIB [5],3.17
same,area under dose-response curve,SAPACITABINE [6],2.73
same,area under dose-response curve,MDV3100 [7],3.37
same,area under dose-response curve,TIOGUANINE [8],3.41
same,surviving fraction,CANERTINIB [9]; 0.5 nM,0.949 ± 0.063
same,surviving fraction,CANERTINIB [9]; 1 nM,0.949 ± 0.015
same,surviving fraction,CANERTINIB [9]; 5 nM,0.965 ± 0.069
same,surviving fraction,CANERTINIB [9]; 10 nM,0.943 ± 0.069
same,surviving fraction,CANERTINIB [9]; 50 nM,1 ± 0.027
same,surviving fraction,CANERTINIB [9]; 100 nM,0.995 ± 0.02
same,surviving fraction,CANERTINIB [9]; 500 nM,0.808 ± 0.03
same,surviving fraction,CANERTINIB [9]; 1000 nM,0.701 ± 0.022
same,surviving fraction,[10]; 0.5 nM,1.01 ± 0.021
same,surviving fraction,[10]; 1 nM,0.991 ± 0.062
same,surviving fraction,[10]; 5 nM,1.02 ± 0.039
same,surviving fraction,[10]; 10 nM,1.03 ± 0.023
same,surviving fraction,[10]; 50 nM,0.975 ± 0.043
same,surviving fraction,[10]; 100 nM,0.863 ± 0.041
same,surviving fraction,[10]; 500 nM,0.504 ± 0.024
same,surviving fraction,[10]; 1000 nM,0.319 ± 0.04
same,surviving fraction,BI-2536 [11]; 0.5 nM,0.991 ± 0.0085
same,surviving fraction,BI-2536 [11]; 1 nM,0.994 ± 0.071
same,surviving fraction,BI-2536 [11]; 5 nM,0.6 ± 0.1
same,surviving fraction,BI-2536 [11]; 10 nM,0.242 ± 0.035
same,surviving fraction,BI-2536 [11]; 50 nM,0.211 ± 0.0099
same,surviving fraction,BI-2536 [11]; 100 nM,0.204 ± 0.022
same,surviving fraction,BI-2536 [11]; 500 nM,0.265 ± 0.014
same,surviving fraction,BI-2536 [11]; 1000 nM,0.303 ± 0.016
same,surviving fraction,SNX-5422 [12]; 0.5 nM,0.99 ± 0.02
same,surviving fraction,SNX-5422 [12]; 1 nM,1.03 ± 0.021
same,surviving fraction,SNX-5422 [12]; 5 nM,1.07 ± 0.032
same,surviving fraction,SNX-5422 [12]; 10 nM,1.1 ± 0.06
same,surviving fraction,SNX-5422 [12]; 50 nM,0.767 ± 0.023
same,surviving fraction,SNX-5422 [12]; 100 nM,0.503 ± 0.026
same,surviving fraction,SNX-5422 [12]; 500 nM,0.391 ± 0.02
same,surviving fraction,SNX-5422 [12]; 1000 nM,0.319 ± 0.0095
same,surviving fraction,AFATINIB [13]; 0.5 nM,1.03 ± 0.034
same,surviving fraction,AFATINIB [13]; 1 nM,1 ± 0.019
same,surviving fraction,AFATINIB [13]; 5 nM,1.06 ± 0.027
same,surviving fraction,AFATINIB [13]; 10 nM,1.04 ± 0.068
same,surviving fraction,AFATINIB [13]; 50 nM,1.03 ± 0.031
same,surviving fraction,AFATINIB [13]; 100 nM,0.959 ± 0.017
same,surviving fraction,AFATINIB [13]; 500 nM,0.824 ± 0.028
same,surviving fraction,AFATINIB [13]; 1000 nM,0.631 ± 0.034
same,surviving fraction,SAPACITABINE [14]; 0.5 nM,0.915 ± 0.032
same,surviving fraction,SAPACITABINE [14]; 1 nM,0.908 ± 0.036
same,surviving fraction,SAPACITABINE [14]; 5 nM,0.931 ± 0.037
same,surviving fraction,SAPACITABINE [14]; 10 nM,0.935 ± 0.024
same,surviving fraction,SAPACITABINE [14]; 50 nM,0.886 ± 0.056
same,surviving fraction,SAPACITABINE [14]; 100 nM,0.766 ± 0.056
same,surviving fraction,SAPACITABINE [14]; 500 nM,0.528 ± 0.012
same,surviving fraction,SAPACITABINE [14]; 1000 nM,0.438 ± 0.019
same,surviving fraction,MDV3100 [15]; 0.5 nM,1.01 ± 0.018
same,surviving fraction,MDV3100 [15]; 1 nM,0.989 ± 0.025
same,surviving fraction,MDV3100 [15]; 5 nM,1.01 ± 0.044
same,surviving fraction,MDV3100 [15]; 10 nM,1.03 ± 0.044
same,surviving fraction,MDV3100 [15]; 50 nM,1.06 ± 0.054
same,surviving fraction,MDV3100 [15]; 100 nM,1.02 ± 0.041
same,surviving fraction,MDV3100 [15]; 500 nM,1.01 ± 0.069
same,surviving fraction,MDV3100 [15]; 1000 nM,1.01 ± 0.019
same,surviving fraction,TIOGUANINE [16]; 0.5 nM,0.992 ± 0.071
same,surviving fraction,TIOGUANINE [16]; 1 nM,1.02 ± 0.098
same,surviving fraction,TIOGUANINE [16]; 5 nM,1.1 ± 0.059
same,surviving fraction,TIOGUANINE [16]; 10 nM,0.98 ± 0.058
same,surviving fraction,TIOGUANINE [16]; 50 nM,1.02 ± 0.019
same,surviving fraction,TIOGUANINE [16]; 100 nM,1.06 ± 0.049
same,surviving fraction,TIOGUANINE [16]; 500 nM,1.06 ± 0.055
same,surviving fraction,TIOGUANINE [16]; 1000 nM,1.02 ± 0.018
